Laboratory results as given in article PMC4819940 (Cancer Chemotherapy and Pharmacology, 2016).
Like-named read-outs stand apart in the source and are kept apart here.

Assay: Plasma pharmacokinetics of AZD5363 after a single dose and multiple doses
Format: in vivo, human
Conditions: for AUC / Cmax / Vd/F / C ss,max: geometric mean (CV%); for Tmax / t ss,max / t half: median (range); for Vd/F: read-out: V ss/F
Excerpt: […] area under the plasma concentration–time curve (AUC), maximum plasma (peak) drug concentration (Cmax), time to reach Cmax (tmax), apparent plasma clearance (CL/F), and oral volume of distribution at steady state (Vss/F).

[1] = human, plasma, oral, single dose, 80 mg bid continuous cohort, n=3
[2] = human, plasma, oral, single dose, 240 mg bid continuous cohort, n=7
[3] = human, plasma, oral, single dose, 320 mg bid continuous cohort, n=6
[4] = human, plasma, oral, single dose, 360 mg bid intermittent 4/3 cohort, n=8
[5] = human, plasma, oral, single dose, 400 mg bid continuous cohort, n=5
[6] = human, plasma, oral, single dose, 480 mg bid intermittent 4/3 cohort, n=6
[7] = human, plasma, oral, single dose, 640 mg bid intermittent 2/5 cohort, n=6
[8] = human, plasma, oral, single dose, Total, n=41
[9] = multiple doses, 80 mg bid continuous, n=3
[10] = multiple doses, 240 mg bid continuous, n=7
[11] = multiple doses, 320 mg bid continuous, n=4
[12] = multiple doses, 360 mg bid intermittent 4/3, n=7
[13] = multiple doses, 400 mg bid continuous, n=4
[14] = multiple doses, 480 mg bid intermittent 4/3, n=6
[15] = multiple doses, 640 mg bid intermittent 2/5, n=6

NC1(C(=O)N[C@@H](CCO)c2ccc(Cl)cc2)CCN(c2ncnc3[nH]ccc23)CC1 [AZD5363]
AUC (human, plasma, oral, multiple doses, Total, n=37, read-out: AUCss): 6820 ng·h/mL
Tmax (human, plasma, oral, single dose, all cohorts, read-out: tmax): 1.98 h
Cmax [1]: 217 ng/mL
Vd/F [1]: 715 L
Tmax (human, plasma, oral, single dose, 80 mg bid continuous cohort, n=3, read-out: t max): 2 h
Cmax [2]: 628 ng/mL
Vd/F [2]: 682 L
Tmax (human, plasma, oral, single dose, 240 mg bid continuous cohort, n=7, read-out: t max): 1.9 h
Cmax [3]: 1580 ng/mL
Vd/F [3]: 370 L
Tmax (human, plasma, oral, single dose, 320 mg bid continuous cohort, n=6, read-out: t max): 1.98 h
Cmax [4]: 1010 ng/mL
Vd/F [4]: 681 L
Tmax (human, plasma, oral, single dose, 360 mg bid intermittent 4/3 cohort, n=8, read-out: t max): 1.99 h
Cmax [5]: 1060 ng/mL
Vd/F [5]: 777 L
Tmax (human, plasma, oral, single dose, 400 mg bid continuous cohort, n=5, read-out: t max): 1.97 h
Cmax [6]: 1910 ng/mL
Vd/F [6]: 502 L
Tmax (human, plasma, oral, single dose, 480 mg bid intermittent 4/3 cohort, n=6, read-out: t max): 1.02 h
Cmax [7]: 2100 ng/mL
Vd/F [7]: 587 L
Tmax (human, plasma, oral, single dose, 640 mg bid intermittent 2/5 cohort, n=6, read-out: t max): 2.02 h
Cmax [8]: 1090 ng/mL
AUC (human, plasma, oral, single dose, Total, n=41, read-out: AUC): 5180 ng·h/mL
Vd/F [8]: 595 L
half-life (human, plasma, single oral doses): ~10 h
C ss,max [9]: 318.3 (128.4) ng/mL
t ss,max [9]: 1 (0.98‒1.97) hours
C ss,max [10]: 874.4 (89.7) ng/mL
t ss,max [10]: 1.98 (0.97‒3.9) hours
C ss,max [11]: 1222 (53.7) ng/mL
t ss,max [11]: 1.465 (0.92‒2.12) hours
C ss,max [12]: 1366 (64.9) ng/mL
t ss,max [12]: 0.98 (0.5‒2) hours
C ss,max [13]: 2094 (56.6) ng/mL
t ss,max [13]: 2 (0.93‒2) hours
C ss,max [14]: 2670 (36.7) ng/mL
t ss,max [14]: 1.99 (1‒2.05) hours
C ss,max [15]: 2618 (20.0) ng/mL
t ss,max [15]: 2.01 (2‒3.97) hours
C ss,max (multiple doses, Total, n=37): 1430 (96.6) ng/mL
t ss,max (multiple doses, Total, n=37): 1.98 (0.5‒3.97) hours
t ss,max (multiple dosing, all cohorts): 1.98 (0.50–3.97) hours
dose proportionality of exposure (single and multiple doses, 80- to 640-mg doses): generally dose proportional
t half (single dose, 80 mg bid continuous cohort, n=3): 11.8 (8.5‒12.2) hours
t half (single dose, 240 mg bid continuous cohort, n=7): 10.2 (8.2‒10.9) hours
t half (single dose, 320 mg bid continuous cohort, n=6): 9.7 (7.3‒10.6) hours
t half (single dose, 360 mg bid intermittent 4/3 cohort, n=8): 9.7 (5.3‒11.1) hours
t half (single dose, 400 mg bid continuous cohort, n=5): 9.6 (9.0‒13.0) hours
t half (single dose, 480 mg bid intermittent 4/3 cohort, n=6): 9.3 (8.1‒11.6) hours
t half (single dose, 640 mg bid intermittent 2/5 cohort, n=6): 10.1 (9.4‒13.7) hours
Tmax (single dose, Total, n=41): 1.98 (0.87‒4.02) hours
t half (single dose, Total, n=41): 9.9 (5.3‒13.7) hours
duration of distribution phase following Cmax (single oral doses, generally lasting up to): 6 to 8 h
